ChEMBL document CHEMBL1133149, “Synthesis and biological evaluation of analogues of bacterial lipid I” (Bioorg Med Chem Lett, 2000)
Values after ≈ are worked out from the molar mass of the structure shown. One block for each compound: values may come before it.

Legend:
[1] = tested on: Escherichia coli; test: Compound was evaluated for its ability to inhibit the formation of peptidoglycan by incorporation of [14C]GlcNAc into TCA insoluble, filter-capturable material; NI is No Inhibition at 200 ug/mL; format: functional, organism-based
[2] = tested on: Escherichia coli; test: Compound was evaluated for its ability to inhibit MraY enzyme for the conversion of Lipid I to lipid II in the coupled MraY/MurG assay; Ni is No Inhibition at 256 ug/mL
[3] = tested on: Escherichia coli; test: Compound was evaluated for its ability to inhibit MurG enzyme for the conversion of Lipid I to lipid II in MurG enzyme assay; NI is No Inhibition at 256 ug/mL
[4] = tested on: Escherichia coli; test: Compound was evaluated for its ability to inhibit MurG enzyme for the conversion of Lipid I to lipid II in coupled MraY/MurG assay; NI is No Inhibition at 256 ug/mL
[5] = Compound was evaluated for its ability to inhibit MraY enzyme for the conversion of Lipid I to lipid II in coupled MraY/MurG assay; NI is No Inhibition at 234 ug/mL; parameters: species or system Escherichia coli
[6] = (§1) Compound was evaluated for its ability to inhibit MurG enzyme for the conversion of Lipid I to lipid II in coupled MraY/MurG assay; NI is No Inhibition at 234 ug/mL; parameters: species or system Escherichia coli
[7] = tested on: Escherichia coli; test: Compound was evaluated for its ability to inhibit MraY enzyme for the conversion of Lipid I to lipid II in the coupled MraY/MurG assay; Ni is No Inhibition at 238 ug/mL
[8] = tested on: Escherichia coli; test: Compound was evaluated for its ability to inhibit MurG enzyme for the conversion of Lipid I to lipid II in the coupled MraY/MurG assay; NI is No inhibition at 238 ug/mL
[9] = Compound was evaluated for its ability to inhibit MurG enzyme for the conversion of Lipid I to lipid II in MurG enzyme assay; parameters: species or system Escherichia coli
[10] = tested on: Escherichia coli; test: Compound was evaluated for its ability to inhibit MraY enzyme for the conversion of Lipid I to lipid II in the coupled MraY/MurG assay; Ni is No Inhibition at 234 ug/mL
[11] = tested on: Escherichia coli; test: Compound was evaluated for its ability to inhibit MurG enzyme for the conversion of Lipid I to lipid II in MurG enzyme assay; NI is No Inhibition at 234 ug/mL
[12] = tested on: Escherichia coli; test: as §1

Activity [2]: No inhibition
Activity [3]: No inhibition
Activity [4]: No inhibition
Compound: COC1OC(CO)C(O)C(O[C@@H](C)C(=O)N[C@@H](C)C(=O)N[C@H](CCC(=O)N[C@@H](CCCCN)C(=O)N[C@H](C)C(=O)N[C@H](C)C(=O)O)C(=O)O)C1NC(C)=O (some centres undefined)
Activity [1]: No inhibition

Compound: CC(=O)N[C@H]1[C@@H](O[C@@H]2O[C@H](CC(O)[C@H]3O[C@@H](n4ccc(=O)[nH]c4=O)[C@H](O)[C@@H]3O)[C@H](O)[C@H](O)[C@H]2NC(=O)/C=C/CC(C)C)O[C@H](CO)[C@@H](N)[C@@H]1O (some centres undefined) [TUNICAMYCIN]
IC50 [5]: < 1 µg/mL

IC50 [6]: < 1 µg/mL
Compound: RAMOPLANIN

Activity [7]: No inhibition
Activity [8]: No inhibition
IC50 [9]: 50 µg/mL (≈ 59.3 µM)
Compound: CC(=O)NC1C(OP(=O)(O)O)OC(CO)C(O)C1O[C@@H](C)C(=O)N[C@@H](C)C(=O)N[C@H](CCC(=O)N[C@@H](CCCCN)C(=O)N[C@H](C)C(=O)N[C@H](C)C(=O)O)C(=O)O (some centres undefined)
Activity [1]: No inhibition

Activity [10]: No inhibition
Activity [11]: No inhibition
Activity [12]: No inhibition
Compound: CC(=O)NC1C(Sc2ccccc2)OC(CO)C(O)C1O[C@@H](C)C(=O)N[C@@H](C)C(=O)N[C@H](CCC(=O)N[C@@H](CCCCN)C(=O)N[C@H](C)C(=O)N[C@H](C)C(=O)O)C(=O)O (some centres undefined)
Activity [1]: No inhibition
